Laboratory results: ChEMBL document CHEMBL4725268, “Anticonvulsant and analgesic in neuropathic pain activity in a group of new aminoalkanol derivatives” (Bioorg Med Chem Lett, 2020)
Activity calls are given as the source filed them.

Tests used:
[1] = Genotoxicity in Salmonella typhimurium TA98 assessed as number of revertant at 200 ug by AMES test (reference value: 8 to 8.3); assay type: toxicity, Salmonella enterica subsp. enterica serovar Typhimurium; conditions: in vivo; dose 200 µg
[2] = Genotoxicity in Salmonella typhimurium TA100 assessed as number of revertant at 10 ug by AMES test (reference value: 64.3 to 130.7); assay type: toxicity, Salmonella enterica subsp. enterica serovar Typhimurium; conditions: in vivo; dose 10 µg
Salmonella enterica = experiment: Antimicrobial activity against Salmonella enterica ATCC 51957 assessed as reduction in bacterial growth at 0.195 to 100 ug/ml by serial dilution method; assay type: organism-based; conditions: in vivo, dose 0.195-100 µg/ml
[3] = Genotoxicity in Salmonella typhimurium TA100 assessed as number of revertant at 1000 ug by AMES test (reference value: 64.3 to 130.7); assay type: toxicity, Salmonella enterica subsp. enterica serovar Typhimurium; conditions: in vivo; dose 1000 µg
[4] = Genotoxicity in Salmonella typhimurium TA98 assessed as mutagenic index at 500 ug by AMES test; assay type: toxicity, Salmonella enterica subsp. enterica serovar Typhimurium; conditions: in vivo; dose 500 µg
[5] = Genotoxicity in Salmonella typhimurium TA100 assessed as number of revertant at 500 ug by AMES test (reference value: 64.3 to 130.7); assay type: toxicity, Salmonella enterica subsp. enterica serovar Typhimurium; conditions: in vivo; dose 500 µg
[6] = Genotoxicity in Salmonella typhimurium TA100 assessed as mutagenic index at 75 ug by AMES test; assay type: toxicity, Salmonella enterica subsp. enterica serovar Typhimurium; conditions: in vivo; dose 75 µg
[7] = Toxicity in ip dosed mouse assessed as motor impairment by rotarod test; assay type: organism-based; conditions: in vivo
[8] = Genotoxicity in Salmonella typhimurium TA100 assessed as number of revertant at 75 ug by AMES test (reference value: 64.3 to 130.7); assay type: toxicity, Salmonella enterica subsp. enterica serovar Typhimurium; conditions: in vivo; dose 75 µg
Mus musculus [9] = experiment: Antiallodynic activity in mouse model of OXA-induced peripheral neuropathy assessed as mean paw withdrawal threshold at 18 mg/kg, ip administered after 3 hrs of OXA stimulation and measured after 1 hr by Von-frey method (reference value: 3.144 +/- 0.169 g); assay type: functional
Hoylesella loescheii = experiment: Antimicrobial activity against Prevotella loescheii ATCC 15930 assessed as reduction in bacterial growth at 0.195 to 100 ug/ml by disk diffusion method; assay type: organism-based, DSM 19665 = JCM 12249 = ATCC 15930; conditions: in vivo, dose 0.195-100 µg/ml
Escherichia coli [10] = experiment: Antimicrobial activity against Escherichia coli ATCC 35218 assessed as reduction in bacterial growth at 0.195 to 100 ug/ml by serial dilution method; assay type: organism-based; conditions: in vivo, dose 0.195-100 µg/ml
Clostridioides difficile = experiment: Antimicrobial activity against clinical strain Clostridium difficile assessed as reduction in bacterial growth at 0.195 to 100 ug/ml by disk diffusion method; assay type: organism-based; conditions: in vivo, dose 0.195-100 µg/ml
[11] = Toxicity in mouse assessed as lethality at 10 mg/kg, ip; assay type: organism-based; conditions: in vivo
[12] = Genotoxicity in Salmonella typhimurium TA98 assessed as mutagenic index at 75 ug by AMES test; assay type: toxicity, Salmonella enterica subsp. enterica serovar Typhimurium; conditions: in vivo; dose 75 µg
[13] = Genotoxicity in Salmonella typhimurium TA100 assessed as number of revertant at 200 ug by AMES test (reference value: 64.3 to 130.7); assay type: toxicity, Salmonella enterica subsp. enterica serovar Typhimurium; conditions: in vivo; dose 200 µg
[14] = Genotoxicity in Salmonella typhimurium TA98 assessed as number of revertant at 750 ug by AMES test (reference value: 8 to 8.3); assay type: toxicity, Salmonella enterica subsp. enterica serovar Typhimurium; conditions: in vivo; dose 750 µg
Escherichia coli [15] = experiment: Antimicrobial activity against Escherichia coli ATCC 25922 assessed as reduction in bacterial growth at 0.195 to 100 ug/ml by serial dilution method; assay type: organism-based; conditions: in vivo, dose 0.195-100 µg/ml
[16] = Genotoxicity in Salmonella typhimurium TA100 assessed as mutagenic index at 10 ug by AMES test; assay type: toxicity, Salmonella enterica subsp. enterica serovar Typhimurium; conditions: in vivo; dose 10 µg
Mus musculus [17] = experiment: Anticonvulsant activity in ip dosed mouse assessed as protection against current-induced seizure by maximal electroshock seizure test; assay type: functional
[18] = Genotoxicity in Salmonella typhimurium TA100 assessed as mutagenic index at 200 ug by AMES test; assay type: toxicity, Salmonella enterica subsp. enterica serovar Typhimurium; conditions: in vivo; dose 200 µg
Staphylococcus aureus [19] = experiment: Antimicrobial activity against Staphylococcus aureus ATCC 25923 assessed as reduction in bacterial growth at 0.195 to 100 ug/ml by serial dilution method; assay type: organism-based; conditions: in vivo, dose 0.195-100 µg/ml
[20] = biological target: T1, 5-hydroxytryptamine receptor 1A (Homo sapiens) (UniProt P08908); experiment: Binding affinity to 5-HT1A (unknown origin) at 10^-5 M; conditions: dose 1.0 10^-5M
T1 sequence (whole entry): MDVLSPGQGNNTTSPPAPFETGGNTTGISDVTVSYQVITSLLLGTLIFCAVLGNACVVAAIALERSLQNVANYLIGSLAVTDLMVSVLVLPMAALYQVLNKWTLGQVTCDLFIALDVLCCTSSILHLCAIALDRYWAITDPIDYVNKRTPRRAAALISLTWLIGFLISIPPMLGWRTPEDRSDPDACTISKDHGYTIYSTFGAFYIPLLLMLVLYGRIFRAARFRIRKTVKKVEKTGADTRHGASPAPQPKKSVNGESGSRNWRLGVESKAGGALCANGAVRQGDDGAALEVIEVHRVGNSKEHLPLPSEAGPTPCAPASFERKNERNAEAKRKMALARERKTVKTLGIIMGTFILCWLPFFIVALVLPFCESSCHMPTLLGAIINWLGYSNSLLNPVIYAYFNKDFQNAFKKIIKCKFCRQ

Mus musculus [21] = experiment: Antiallodynic activity in mouse model of OXA-induced peripheral neuropathy assessed as mean latency time to nocifensive response at 18 mg/kg, ip administered after 3 hrs of OXA stimulation and measured after 1 hr by cold plate method (reference value: 59.76 +/- 0.16 sec); assay type: functional
[22] = Protection index, ratio of TD50 for toxicity in ip dosed mouse to ED50 for anticonvulsant activity in ip dosed mouse; assay type: organism-based; conditions: in vivo, read-out: PI
Mus musculus [23] = experiment: Antiallodynic activity in mouse model of OXA-induced peripheral neuropathy assessed as mean paw withdrawal threshold at 18 mg/kg, ip administered after 7 days of OXA stimulation and measured after 1 hr by Von-frey method (reference value: 3.192 +/- 0.181 g); assay type: functional
[24] = Genotoxicity in Salmonella typhimurium TA98 assessed as number of revertant at 10 ug by AMES test (reference value: 8 to 8.3); assay type: toxicity, Salmonella enterica subsp. enterica serovar Typhimurium; conditions: in vivo; dose 10 µg
Bacteroides fragilis = experiment: Antimicrobial activity against Bacteroides fragilis ATCC 25285 assessed as reduction in bacterial growth at 0.195 to 100 ug/ml by disk diffusion method; assay type: organism-based; conditions: in vivo, dose 0.195-100 µg/ml
[25] = Genotoxicity in Salmonella typhimurium TA98 assessed as number of revertant at 75 ug by AMES test (reference value: 8 to 8.3); assay type: toxicity, Salmonella enterica subsp. enterica serovar Typhimurium; conditions: in vivo; dose 75 µg
[26] = Genotoxicity in Salmonella typhimurium TA98 assessed as mutagenic index at 750 ug by AMES test; assay type: toxicity, Salmonella enterica subsp. enterica serovar Typhimurium; conditions: in vivo; dose 750 µg
[27] = Genotoxicity in Salmonella typhimurium TA100 assessed as mutagenic index at 1000 ug by AMES test; assay type: toxicity, Salmonella enterica subsp. enterica serovar Typhimurium; conditions: in vivo; dose 1000 µg
[28] = Genotoxicity in Salmonella typhimurium TA98 assessed as mutagenic index at 10 ug by AMES test; assay type: toxicity, Salmonella enterica subsp. enterica serovar Typhimurium; conditions: in vivo; dose 10 µg
[29] = Genotoxicity in Salmonella typhimurium TA100 assessed as mutagenic index at 500 ug by AMES test; assay type: toxicity, Salmonella enterica subsp. enterica serovar Typhimurium; conditions: in vivo; dose 500 µg
Enterococcus faecalis = experiment: Antimicrobial activity against Enterococcus faecalis ATCC 29212 assessed as reduction in bacterial growth at 0.195 to 100 ug/ml by serial dilution method; assay type: organism-based; conditions: in vivo, dose 0.195-100 µg/ml
[30] = Genotoxicity in Salmonella typhimurium TA98 assessed as number of revertant at 500 ug by AMES test (reference value: 8 to 8.3); assay type: toxicity, Salmonella enterica subsp. enterica serovar Typhimurium; conditions: in vivo; dose 500 µg
Staphylococcus aureus [31] = experiment: Antimicrobial activity against clinical strain Staphylococcus aureus assessed as reduction in bacterial growth at 0.195 to 100 ug/ml by serial dilution method; assay type: organism-based; conditions: in vivo, dose 0.195-100 µg/ml
[32] = Antimicrobial activity against clinical strain Bifidobacterium assessed as reduction in bacterial growth at 0.195 to 100 ug/ml by disk diffusion method; conditions: dose 0.195-100 µg/ml
[33] = Antioxidant activity assessed as DPPH radical scavenging activity at 125 to 1000 uM by microplate method; assay type: functional; conditions: dose microM 125-1000
Mus musculus [34] = experiment: Antiallodynic activity in mouse model of OXA-induced peripheral neuropathy assessed as mean latency time to nocifensive response at 18 mg/kg, ip administered after 7 days of OXA stimulation and measured after 1 hr by cold plate method (reference value: 57.64 +/- 1.267 sec); assay type: functional
[35] = Genotoxicity in Salmonella typhimurium TA98 assessed as mutagenic index at 200 ug by AMES test; assay type: toxicity, Salmonella enterica subsp. enterica serovar Typhimurium; conditions: in vivo; dose 200 µg

With Cc1cc(C)c(C)c(OCCCN2CCC(O)CC2)c1 the Activity [1] was 11, the Activity [2] was 66 and the Activity (Salmonella enterica) was “Non-Toxic”. For the same molecule, the Activity [3] was 1190, the Activity_index [4] was 0.8 and the Activity [5] was 944. It also gave an Activity_index [6] of 0.8, a TD50 [7] of 63.4 mg/kg and an Activity [8] of 52.3. The Activity (Mus musculus [9]) was 1.921 g, the Activity (Hoylesella loescheii) was “Non-Toxic” and the Activity (Escherichia coli [10]) was “Non-Toxic”. The Activity (Clostridioides difficile) was “Non-Toxic”, the Activity [11] was “Non-Toxic” and the Activity_index [12] was 1.8. The Activity [13] was 42, the Activity [14] was 364.3 and the Activity (Escherichia coli [15]) was “Non-Toxic”. It also gave an Activity_index [16] of 1, an ED50 (Mus musculus [17]) of 17.7 mg/kg and an Activity_index [18] of 0.7. The Activity (Staphylococcus aureus [19]) was “Non-Toxic”, the Activity [20] was “inactive” and the Time (Mus musculus [21]) was 15.167 s. The selectivity ratio [22] was 3.58, the Activity (Mus musculus [23]) was 2.027 g and the Activity [24] was 12. The Activity (Bacteroides fragilis) was “Non-Toxic”, the Activity [25] was 15.3 and the Activity_index [26] was 43.7. It also gave an Activity_index [27] of 18.5, an Activity_index [28] of 1.4 and an Activity_index [29] of 14.7. The Activity (Enterococcus faecalis) was “Non-Toxic”, the Activity [30] was 6.7 and the Activity (Staphylococcus aureus [31]) was “Non-Toxic”. The Activity [32] was “Non-Toxic”, the Activity [33] was “inactive” and the Time (Mus musculus [34]) was 8.833 s. For the same molecule, the Activity_index [35] was 1.3.
